Laboratory results reported in ChEMBL document CHEMBL5303573, “Mapping human microbiome drug metabolism by gut bacteria and their genes” (Nature, 2019).
Non-standard residues stand in square brackets, D forms with d. Residues, ends and D or L forms follow the SMILES beside them. pGlu = O=C1CC[C@@H](C(=O)O)N1; Thz = O=C(O)[C@@H]1CSCN1

Legend:
[1] = The drug is tested on Clostridium symbiosum strain: ATCC14940 for biotransformation. The drug concentrations were measured before and after a 12-h incubation by liquid-chromatography-coupled mass spectrometry (LC–MS); details: 2 µM
[2] = The drug is tested on Bacteroides coprophilus strain: DSM18228 for biotransformation. The drug concentrations were measured before and after a 12-h incubation by liquid-chromatography-coupled mass spectrometry (LC–MS); details: 2 µM
[3] = The drug is tested on Alistipes indistinctus strain: DSM22520 for biotransformation. The drug concentrations were measured before and after a 12-h incubation by liquid-chromatography-coupled mass spectrometry (LC–MS); details: 2 µM
[4] = anaerostipes sp., 12 h, 2 µM
Description: The drug is tested on Anaerostipes sp. strain: fecal isolate for biotransformation. The drug concentrations were measured before and after a 12-h incubation by liquid-chromatography-coupled mass spectrometry (LC–MS)

[5] = The drug is tested on Bacteroides cellulosilyticus strain: DSM14838 for biotransformation. The drug concentrations were measured before and after a 12-h incubation by liquid-chromatography-coupled mass spectrometry (LC–MS); details: 2 µM
[6] = The drug is tested on Collinsella intestinalis strain: DSM13280 for biotransformation. The drug concentrations were measured before and after a 12-h incubation by liquid-chromatography-coupled mass spectrometry (LC–MS); details: 2 µM
[7] = The drug is tested on Clostridium ramosum strain: DSM1402 for biotransformation. The drug concentrations were measured before and after a 12-h incubation by liquid-chromatography-coupled mass spectrometry (LC–MS); details: thomasclavelia ramosa, 2 µM
[8] = The drug is tested on Enterobacter cancerogenus strain: ATCC35316 for biotransformation. The drug concentrations were measured before and after a 12-h incubation by liquid-chromatography-coupled mass spectrometry (LC–MS); details: 2 µM
[9] = The drug is tested on Bacteroides fragilis strain: ATCC43859 for biotransformation. The drug concentrations were measured before and after a 12-h incubation by liquid-chromatography-coupled mass spectrometry (LC–MS); details: 2 µM
[10] = The drug is tested on Blautia luti strain: DSM14534 for biotransformation. The drug concentrations were measured before and after a 12-h incubation by liquid-chromatography-coupled mass spectrometry (LC–MS); assay type: ADME; design: dose 2 uM, timepoint 0 vs 12 hours; details: 2 µM
[11] = bacteroides fragilis, 12 h, 2 µM
Description: The drug is tested on Bacteroides fragilis strain: 3397 (T10) for biotransformation. The drug concentrations were measured before and after a 12-h incubation by liquid-chromatography-coupled mass spectrometry (LC–MS)

[12] = The drug is tested on Subdoligranulum variabile strain: DSM15176 for biotransformation. The drug concentrations were measured before and after a 12-h incubation by liquid-chromatography-coupled mass spectrometry (LC–MS); details: 2 µM
[13] = The drug is tested on Bacteroides dorei strain: DSM17855 for biotransformation. The drug concentrations were measured before and after a 12-h incubation by liquid-chromatography-coupled mass spectrometry (LC–MS); details: phocaeicola dorei, 2 µM
[14] = bacteroides fragilis, 12 h, 2 µM; remark: listed apart in the source
Description: The drug is tested on Bacteroides fragilis strain: NCTC 9343 for biotransformation. The drug concentrations were measured before and after a 12-h incubation by liquid-chromatography-coupled mass spectrometry (LC–MS)

[15] = The drug is tested on Bacteroides fragilis strain: HMW615 for biotransformation. The drug concentrations were measured before and after a 12-h incubation by liquid-chromatography-coupled mass spectrometry (LC–MS); details: 2 µM
[16] = The drug is tested on Bacteroides fragilis strain: HMW610 for biotransformation. The drug concentrations were measured before and after a 12-h incubation by liquid-chromatography-coupled mass spectrometry (LC–MS); details: 2 µM
[17] = The drug is tested on Ruminococcus lactaris strain: ATCC29176 for biotransformation. The drug concentrations were measured before and after a 12-h incubation by liquid-chromatography-coupled mass spectrometry (LC–MS); details: 2 µM
[18] = The drug is tested on Clostridium sporogenes strain: ATCC15579 for biotransformation. The drug concentrations were measured before and after a 12-h incubation by liquid-chromatography-coupled mass spectrometry (LC–MS); details: 2 µM
[19] = The drug is tested on Ruminococcus torques strain: ATCC27756 for biotransformation. The drug concentrations were measured before and after a 12-h incubation by liquid-chromatography-coupled mass spectrometry (LC–MS); assay type: ADME; design: dose 2 uM, timepoint 0 vs 12 hours; details: 2 µM
[20] = The drug is tested on Parabacteroides merdae strain: ATCC43184 for biotransformation. The drug concentrations were measured before and after a 12-h incubation by liquid-chromatography-coupled mass spectrometry (LC–MS); details: 2 µM

| SMILES | Bacterial Biotransformation [1] | Bacterial Biotransformation [2] | Bacterial Biotransformation [3] | Bacterial Biotransformation [4] | Bacterial Biotransformation [5] | Bacterial Biotransformation [6] | Bacterial Biotransformation [7] | Bacterial Biotransformation [8] | Bacterial Biotransformation [9] | Bacterial Biotransformation [10] | Bacterial Biotransformation [11] | Bacterial Biotransformation [12] | Bacterial Biotransformation [13] | Bacterial Biotransformation [14] | Bacterial Biotransformation [15] | Bacterial Biotransformation [16] | Bacterial Biotransformation [17] | Bacterial Biotransformation [18] | Bacterial Biotransformation [19] | Bacterial Biotransformation [20] |
| --- | --- | --- | --- | --- | --- | --- | --- | --- | --- | --- | --- | --- | --- | --- | --- | --- | --- | --- | --- | --- |
| CC(=O)OCC(=O)[C@@]1(O)[C@@H](C)C[C@H]2[C@@H]3CCC4=CC(=O)C=C[C@]4(C)[C@@]3(F)[C@@H](O)C[C@@]21C [BETAMETHASONE ACETATE] | Compound NOT metabolized | Compound metabolized | Compound NOT metabolized | Compound NOT metabolized | Compound NOT metabolized | Compound NOT metabolized | Compound NOT metabolized | Compound NOT metabolized | Compound metabolized | Compound NOT metabolized | Compound metabolized | Compound NOT metabolized | Compound metabolized | Compound metabolized | Compound metabolized | – | – | – | – | – |
| CCOc1ccccc1OCCN[C@H](C)Cc1ccc(OC)c(S(N)(=O)=O)c1.Cl [TAMSULOSIN HYDROCHLORIDE] | Compound NOT metabolized | Compound NOT metabolized | Compound NOT metabolized | Compound NOT metabolized | Compound NOT metabolized | Compound NOT metabolized | Compound NOT metabolized | Compound NOT metabolized | Compound NOT metabolized | Compound NOT metabolized | Compound NOT metabolized | Compound NOT metabolized | Compound NOT metabolized | Compound NOT metabolized | Compound NOT metabolized | Compound NOT metabolized | Compound NOT metabolized | – | Compound NOT metabolized | Compound NOT metabolized |
| CN1[C@@H]2CC[C@H]1C[C@@H](OC(=O)c1c[nH]c3ccccc13)C2 [TROPISETRON] | Compound NOT metabolized | Compound NOT metabolized | Compound NOT metabolized | Compound NOT metabolized | Compound NOT metabolized | Compound NOT metabolized | Compound NOT metabolized | Compound NOT metabolized | Compound NOT metabolized | Compound NOT metabolized | Compound NOT metabolized | Compound NOT metabolized | Compound NOT metabolized | Compound NOT metabolized | Compound NOT metabolized | Compound NOT metabolized | Compound NOT metabolized | – | Compound NOT metabolized | Compound NOT metabolized |
| CS(=O)(=O)O.O.O.O.O=C1Cc2cc(CCN3CCN(c4nsc5ccccc45)CC3)c(Cl)cc2N1 [ZIPRASIDONE MESYLATE] | Compound NOT metabolized | Compound NOT metabolized | Compound metabolized | Compound NOT metabolized | Compound NOT metabolized | Compound NOT metabolized | Compound NOT metabolized | Compound NOT metabolized | Compound NOT metabolized | Compound NOT metabolized | Compound NOT metabolized | Compound NOT metabolized | Compound NOT metabolized | Compound NOT metabolized | Compound NOT metabolized | Compound NOT metabolized | Compound NOT metabolized | – | Compound NOT metabolized | Compound NOT metabolized |

The next lines start with the values.

| Bacterial Biotransformation [1] | Bacterial Biotransformation [2] | Bacterial Biotransformation [3] | Bacterial Biotransformation [4] | Bacterial Biotransformation [5] | Bacterial Biotransformation [6] | Bacterial Biotransformation [7] | Bacterial Biotransformation [8] | Bacterial Biotransformation [9] | Bacterial Biotransformation [10] | Bacterial Biotransformation [11] | Bacterial Biotransformation [12] | Bacterial Biotransformation [13] | Bacterial Biotransformation [14] | Bacterial Biotransformation [15] | Bacterial Biotransformation [16] | Bacterial Biotransformation [17] | Bacterial Biotransformation [18] | Bacterial Biotransformation [19] | Bacterial Biotransformation [20] | SMILES |
| --- | --- | --- | --- | --- | --- | --- | --- | --- | --- | --- | --- | --- | --- | --- | --- | --- | --- | --- | --- | --- |
| Compound NOT metabolized | – | Compound NOT metabolized | Compound NOT metabolized | Compound NOT metabolized | – | Compound NOT metabolized | Compound NOT metabolized | Compound metabolized | Compound NOT metabolized | – | Compound metabolized | Compound metabolized | Compound metabolized | – | Compound metabolized | Compound NOT metabolized | Compound NOT metabolized | – | – | NC(CO)(CO)CO.O=C(c1ccccc1)c1ccc2n1CCC2C(=O)O (stereo not drawn) [KETOROLAC TROMETHAMINE] |
| Compound NOT metabolized | Compound metabolized | Compound NOT metabolized | Compound NOT metabolized | Compound NOT metabolized | Compound NOT metabolized | Compound NOT metabolized | Compound NOT metabolized | Compound metabolized | Compound NOT metabolized | Compound metabolized | Compound NOT metabolized | Compound metabolized | Compound metabolized | Compound metabolized | Compound metabolized | Compound NOT metabolized | – | Compound NOT metabolized | – | O=C1CC[C@@H](C(=O)N2CSC[C@H]2C(=O)O)N1 [PIDOTIMOD] ([pGlu]-[Thz]-OH) |
| Compound NOT metabolized | Compound metabolized | Compound NOT metabolized | – | Compound NOT metabolized | Compound NOT metabolized | Compound NOT metabolized | Compound NOT metabolized | Compound NOT metabolized | Compound NOT metabolized | – | Compound NOT metabolized | Compound NOT metabolized | – | Compound NOT metabolized | Compound NOT metabolized | Compound NOT metabolized | – | Compound NOT metabolized | – | CN(C)CCc1c[nH]c2ccc(Cn3cncn3)cc12.O=C(O)c1ccccc1 [RIZATRIPTAN BENZOATE] |
| Compound NOT metabolized | Compound metabolized | Compound metabolized | Compound NOT metabolized | Compound metabolized | Compound NOT metabolized | – | Compound NOT metabolized | Compound metabolized | Compound NOT metabolized | Compound metabolized | Compound NOT metabolized | Compound metabolized | Compound metabolized | Compound metabolized | Compound metabolized | Compound NOT metabolized | Compound metabolized | Compound NOT metabolized | Compound metabolized | N#Cc1ccc2[nH]cc(CCCCN3CCN(c4ccc5oc(C(N)=O)cc5c4)CC3)c2c1 [VILAZODONE] |
